The values that follow come from ChEMBL document CHEMBL4190186 (Medchemcomm, 2016).

The test system of data set [1] is NCI-H460. In words: Cytotoxicity against human NCI-H460 cells. In kind it is functional, cell-based.
Data set [2] deals with T98G. Nature of the data set: Cytotoxicity against PTEN/TP53 deficient human T98G cells assessed as cell death at 20 uM after 48 hrs by MTT assay relative to control. The data set is classed as functional. For orientation: Tetrazolium assays rely on reduction of a dye to a coloured formazan, in cell work by metabolically active cells.
Data set [3] has as its system LN-18. Nature of the data set: Cytotoxicity against human LN18 cells harboring TP53 mutation assessed as cell death at 20 uM after 48 hrs by MTT assay relative to control. The data set is classed as functional.
Data set [4] deals with LN-18. In words: Effect on H3K27me3 levels in human LN18 cells harboring TP53 mutation at 20 uM after 24 to 48 hrs by Western blot analysis. The data set is classed as ADME, cell-based. The settings on record: ln-18, 20 µM. In general terms: A western blot detects proteins with antibodies after separation by electrophoresis.
Data set [5] relates to T98G. In words: Induction of apoptosis in PTEN/TP53 deficient human T98G cells assessed as increase in cleaved caspase-8 expression at 20 uM after 24 to 48 hrs by Western blot analysis. In kind it is functional, cell-based.
Data set [6] concerns T98G. Nature of the data set: Induction of apoptosis in PTEN/TP53 deficient human T98G cells assessed as increase in cleaved caspase-9 expression at 20 uM after 24 to 48 hrs by Western blot analysis. The data set is classed as functional, cell-based.
Data set [7] deals with LN-18. Nature of the data set: Induction of apoptosis in human LN18 cells harboring TP53 mutation assessed as increase in cleaved caspase-3 expression at 20 uM after 24 to 48 hrs by Western blot analysis. The data set is classed as functional, cell-based.
Data set [8] deals with Astrocyte. In words: Cytotoxicity against rat primary cortical astrocytes assessed as reduction in cell viability at 5 to 40 uM after 48 hrs by MTT assay relative to control. The data set is classed as cell-based.
Data set [9] concerns LN-18. Nature of the data set: Induction of apoptosis in human LN18 cells harboring TP53 mutation assessed as increase in cleaved caspase-9 expression at 20 uM after 24 to 48 hrs by Western blot analysis. The data set is classed as functional, cell-based.
Data set [10] deals with T98G. Nature of the data set: Effect on H3K27me3 levels in PTEN/TP53 deficient human T98G cells at 20 uM after 24 to 48 hrs by Western blot analysis. In kind it is ADME, cell-based.
The test system of data set [11] is T98G. Nature of the data set: Induction of apoptosis in PTEN/TP53 deficient human T98G cells assessed as increase in cleaved caspase-3 expression at 20 uM after 24 to 48 hrs by Western blot analysis. In kind it is functional, cell-based.
Data set [12] relates to LN-18. Nature of the data set: Cytotoxicity against human LN18 cells harboring TP53 mutation after 48 hrs by MTT assay. The data set is classed as functional, cell-based.
Data set [13] deals with LN-18. Nature of the data set: Induction of apoptosis in human LN18 cells harboring TP53 mutation assessed as increase in cleaved PARP expression at 20 uM after 24 to 48 hrs by Western blot analysis. The data set is classed as functional, cell-based.
The subject of data set [14] is T98G. In words: Cytotoxicity against PTEN/TP53 deficient human T98G cells after 48 hrs by MTT assay. The data set is classed as functional, cell-based.
The subject of data set [15] is T98G. In words: Induction of apoptosis in PTEN/TP53 deficient human T98G cells assessed as increase in cleaved PARP expression at 20 uM after 24 to 48 hrs by Western blot analysis. In kind it is functional, cell-based.
Data set [16] has as its system LN-18. In words: Induction of apoptosis in human LN18 cells harboring TP53 mutation assessed as increase in cleaved caspase-8 expression at 20 uM after 24 to 48 hrs by Western blot analysis. The data set is classed as functional, cell-based.

Calls of active or inactive are those of the source. The rule behind the calls is not given here.

One may read the IC50 as the point on the concentration scale where inhibition reaches its midpoint. Read a low IC50 as greater potency in that assay. In turn, `Nc1nsc2c1C(=O)c1ccccc1C2=O` yielded an IC50 in data set [1] of 280 nM. Besides, the Activity in data set [2] and in [3] was >50 - 70% each time.
As to `O=C1Nc2ccc(Cl)cc2/C1=C/c1ccc(-c2ccccc2)cc1`, the result in data set [2] and in [3] was Active.
Regarding `O=C1Nc2ccccc2/C1=C/c1ccc(-c2ccccc2)cc1`, the result in data set [2] and in data set [3] was Active.
Regarding `Cc1[nH]c2ccccc2c1/C=C/c1ccccc1-c1ccc(/C=C/C(=O)Nc2cc(-c3ccccc3)ccc2O)cc1`, the outcome in data set [2] and in data set [3] was Active.
For the compound `O=C1c2ccccc2C(=O)c2c(-c3ccccc3)nsc21`, the Activity entry in data set [4] is “Non-Toxic”; in data set [8], greater than 50%; in [10], “Non-Toxic”; in data set [12] it was “Dose-dependent effect”; in data set [14], “Dose-dependent effect”; in data set [2] it was >50 - 70%. The Activity in data set [3] is listed as >50 - 70%. In addition, the result in [5], in [6], in data set [7], in [9], in data set [11] and in data set [13] was inactive. Besides, the outcome in data set [15] and in data set [16] was inactive. The compound also came in with an IC50 in [1] of 360 nM.
Turning to `Cc1[nH]c2ccccc2c1/C=C/c1ccccc1-c1ccc(/C=C/C(=O)NO)cc1`, the Activity result in [4] is “Non-Toxic”; in data set [8] it was “Non-Toxic”; in [10] it was “Non-Toxic”; in [12] it was “Dose-dependent effect”; in data set [14], “Dose-dependent effect”; in data set [2], greater than 70%. For the same compound, the Activity in data set [3] is greater than 70%. Besides, the outcome in [5], in data set [6], in [7], in [9], in data set [11] and in data set [13] was Active. The outcome in [15] and in data set [16] was Active.
`O=C(Nc1ccccc1)Nc1ccc(/C=C2\C(=O)N(O)c3ccccc32)cc1`: the outcome in data set [2] and in [3] was inactive.
As to `O=C1/C(=C\c2ccc(-c3ccccc3)cc2)c2ccccc2N1O`, the result in [2] and in data set [3] was Active.
As for `NNC(=O)/C=C/c1ccc(-c2ccccc2)cc1`, the outcome in data set [2] and in data set [3] was Active.
As to `CN(C)c1nsc2c1C(=O)c1ccccc1C2=O`, the Activity result in [4] is “Non-Toxic”; in data set [10], “Non-Toxic”; in [12] it was “Dose-dependent effect”; in data set [14], “Dose-dependent effect”; in data set [2] it was >50 - 70%; in [3] it was >50 - 70%. The outcome in data set [5], in data set [6], in data set [7], in data set [9], in data set [11] and in data set [13] was inactive. In addition, the result in [15] and in [16] was inactive. Also, the IC50 in [1] was found to be 220 nM.
As to `O=C1/C(=C\c2ccc(O)cc2)c2ccccc2N1O`, the outcome in data set [2] and in data set [3] was inactive.
For `O=C(/C=C/c1ccc(-c2ccccc2)cc1)NO`, the result in [2] and in data set [3] was Active.
As for `CON1C(=O)/C(=C\c2ccc(-c3ccccc3)cc2)c2ccccc21`, the outcome in [2] and in data set [3] was Active.
Consider `NNC(=O)N/C=C/c1ccc(-c2ccccc2)cc1`, for which the result in data set [2] and in data set [3] was Active.
With `COc1ccc(-c2ccc(/C=C/C(=O)NO)cc2)cc1`, the outcome in data set [2] and in [3] was Active.
With `O=C(Nc1ccccc1)Nc1ccc(/C=C2\C(=O)Nc3ccccc32)cc1`, the result in data set [2] and in data set [3] was inactive.
